# Data reported in patent publication US8198333B2, “Cytostatic drug composition” (Geopharma Produktions GmbH, priority 2004, dated 2012).
# Assays:
# HCT-8 = experiment: Cytostatic activity, EZ4U test, colon carcinoma cell line HCT-8; type: cell-based; conditions: three days
# Method: (§1) Cell lines of a colon carcinoma and a pancreas carcinoma, such as Capan-1, DLD-1, HT 29, HCT-8, MLA-PA-CA2, PANCI, BXPC-3, ASPC-1, and HT-29, were examined. The tested cancer cell lines were stored in liquid nitrogen. After defrosting, the cancer cells were cultivated in culture flasks with RPMI-1640+glutamine medium (Gibco® No. 5240025) at 37° C./5% CO2 atmosphere for up to 14 days so that a monolayer of cells was able to form. Thereupon, the cells were harvested with trypsin+EDTA (Gibco® No. 15400-054) and washed twice with an RPMI-medium.
# (§2) Apart from poly-[2-(2-ethoxyethoxyethyl)guanidinium hydrochloride], the chemotherapeutic agents cisplatin, epirubicin, mitomycin C and 5-fluorouracil were tested by way of comparison. Therefor, the compounds were at first dissolved according to the respective instructions of the manufacturer and were then stored as a stock solution in aliquots of 1 ml each (concentration of drug substance: 1000 μg/ml) in liquid nitrogen at −180° C. The dissolved substances were used on the very same day.
# (§3) In order to determine the cytotoxic activity of the substances, the cancer cells were transferred from the culture flasks with an RPMI-washed suspension at a concentration of 20,000 cells in 200 μl onto microtiter plates. In the presence of varying concentrations of the test substances, the cancer cells were subsequently incubated for three days at a temperature of 37° C. and in an atmosphere of 5% CO2. For the poly-[2-(2-ethoxyethoxyethyl)guanidinium hydrochloride], concentrations of 0.12 to 500 μg/ml (factor 2 dilutions) were used in all test arrangements. After three days of incubation, the evaluation was carried out by means of the nonradioactive cell proliferation and cytotoxicity test EZ4U (Biomedica No. BI-5000 10×96 determinations). After three hours of incubation with EZ4U, the evaluation was carried out photometrically in percent at a wavelength of 49/630 nm in a slidephotometer (extinction of the test sample divided by extinction of the control-sample blank value).
# AsPc-1 = experiment: Cytostatic activity, EZ4U test, pancreas carcinoma cell line AsPc-1; type: cell-based; conditions: three days
# Method: as §1, §2, §3
# Colon 320DM = experiment: Cytostatic activity, EZ4U test, colon carcinoma cell line Colon 320DM; type: cell-based; conditions: three days
# Method: as §1, §2, §3
# Capan-1 = experiment: Cytostatic activity, EZ4U test, pancreas carcinoma cell line Capan-1; type: cell-based; conditions: three days
# Method: as §1, §2, §3
# MIA PaCa-2 = experiment: Cytostatic activity, EZ4U test, pancreas carcinoma cell line MIA PaCa-2; type: cell-based; conditions: three days
# Method: as §1, §2, §3
# Panc-1 = experiment: Cytostatic activity, EZ4U test, pancreas carcinoma cell line Panc-1; type: cell-based; conditions: three days
# Method: as §1, §2, §3
# cancer cells = experiment: Cytostatic activity in cancer cell lines (colon and pancreas carcinoma), summary; type: cell-based; conditions: colon carcinoma (HT-29, HCT-8, DLD-1) and pancreas carcinoma (ASPC-1, BXPC-3, CAPAN-1, PANC-1) cell lines
# Method: as §1
# as §3, with “After three hours of incubation with EZ4U, the evaluation was carried out photometrically in percent at a wavelength of 49/630 nm in a slidephotometer (extinction of the test sample divided by extinction of the control-sample blank value).” left out
# DLD-1 = experiment: Cytostatic activity, EZ4U test, colon carcinoma cell line DLD-1; type: cell-based; conditions: three days
# Method: as §1, §2, §3
# Colon 205 = experiment: Cytostatic activity, EZ4U test, colon carcinoma cell line Colon 205; type: cell-based; conditions: three days
# Method: as §1, §2, §3
# [1] = type: in vivo; conditions: intravenous or intraperitoneal, up to 15 mg/kg body weight
# Method: After an (intravenous or intraperitoneal) systemic administration of poly-[2-(2-ethoxyethoxyethyl)guanidinium hydrochloride] in amounts of up to 15 mg/kg body weight, serum concentrations of up to 100 μg/ml are measured in the rat's blood after two hours, whereby, at the same time, the tolerance is good. Therefore, poly-[2-(2-ethoxyethoxyethyl)guanidinium hydrochloride] can be used as a cytostatic drug.
# BxPc-3 = experiment: Cytostatic activity, EZ4U test, pancreas carcinoma cell line BxPc-3; type: cell-based; conditions: three days
# Method: as §1, §2, §3
# HCT-15 = experiment: Cytostatic activity, EZ4U test, colon carcinoma cell line HCT-15; type: cell-based; conditions: three days
# Method: as §1, §2, §3
# [2] = test system: lymphocytes of healthy test persons; experiment: Vitality of lymphocytes, trypan blue; type: cell-based, human; conditions: for Vitality of lymphocytes in %: 24 hours
# Method: In addition, lymphocytes of healthy test persons were examined. In doing so, a total amount of 100 ml blood was drawn into EDTA test tubes. The lymphocytes were isolated from the full blood by means of a Mono-Poly Resolving Medium/Ficol-Hypaque gradient, were washed three times with an HBSS buffer and, prepared in this manner, they were added to the test stock.
# as §2
# The vitality of the lymphocytes was determined in a suspension of 1.2×10^7/ml at varying concentrations of the test substances. In the presence of the test substances, the cell suspensions were incubated for 24 hours at 37° C. and in an atmosphere of 5% CO2 and were then dyed with trypan blue. After dyeing, the lymphocytes were applied onto the counting chamber and their vitality was evaluated in percent.
# HAT-29 = experiment: Cytostatic activity, EZ4U cell proliferation and cytotoxicity test, colon carcinoma cell line HAT-29; type: cell-based; conditions: three days
# Method: as §1, §2, §3
compound,measurement,setting,value
poly-[2-(2-ethoxyethoxyethyl)guanidinium hydrochloride],vitality in %,HCT-8; 0.125 μg/ml,88%
same,vitality in %,HCT-8; 0.25 μg/ml,70%
same,vitality in %,HCT-8; 0.5 μg/ml,79%
same,vitality in %,HCT-8; 1 μg/ml,85%
same,vitality in %,HCT-8; 2 μg/ml,90%
same,vitality in %,HCT-8; 4 μg/ml,114%
same,vitality in %,HCT-8; 8 μg/ml,91%
same,vitality in %,HCT-8; 16 μg/ml,34%
same,vitality in %,HCT-8; 32 μg/ml,15%
same,vitality in %,HCT-8; 64 μg/ml,11%
same,vitality in %,AsPc-1; 2 μg/ml,92%
same,vitality in %,AsPc-1; 4 μg/ml,70%
same,vitality in %,AsPc-1; 8 μg/ml,50%
same,vitality in %,AsPc-1; 16 μg/ml,15%
same,vitality in %,AsPc-1; 32 μg/ml,12%
same,vitality in %,AsPc-1; 64 μg/ml,13%
same,vitality in %,Colon 320DM; 2 μg/ml,79%
same,vitality in %,Colon 320DM; 4 μg/ml,37%
same,vitality in %,Colon 320DM; 8 μg/ml,26%
same,vitality in %,Colon 320DM; 16 μg/ml,24%
same,vitality in %,Colon 320DM; 32 μg/ml,22%
same,vitality in %,Colon 320DM; 64 μg/ml,21%
same,vitality in %,Capan-1; 2 μg/ml,115%
same,vitality in %,Capan-1; 4 μg/ml,111%
same,vitality in %,Capan-1; 8 μg/ml,95%
same,vitality in %,Capan-1; 16 μg/ml,114%
same,vitality in %,Capan-1; 32 μg/ml,79%
same,vitality in %,Capan-1; 64 μg/ml,46%
same,vitality in %,MIA PaCa-2; 2 μg/ml,106%
same,vitality in %,MIA PaCa-2; 4 μg/ml,97%
same,vitality in %,MIA PaCa-2; 8 μg/ml,58%
same,vitality in %,MIA PaCa-2; 16 μg/ml,16%
same,vitality in %,MIA PaCa-2; 32 μg/ml,12%
same,vitality in %,MIA PaCa-2; 64 μg/ml,11%
same,vitality in %,Panc-1; 2 μg/ml,88%
same,vitality in %,Panc-1; 4 μg/ml,90%
same,vitality in %,Panc-1; 8 μg/ml,55%
same,vitality in %,Panc-1; 16 μg/ml,30%
same,vitality in %,Panc-1; 32 μg/ml,16%
same,vitality in %,Panc-1; 64 μg/ml,11%
same,cytostatic activity,cancer cells,excellent cytostatic activity
same,vitality in %,DLD-1; 2 μg/ml,103%
same,vitality in %,DLD-1; 4 μg/ml,86%
same,vitality in %,DLD-1; 8 μg/ml,49%
same,vitality in %,DLD-1; 16 μg/ml,26%
same,vitality in %,DLD-1; 32 μg/ml,17%
same,vitality in %,DLD-1; 64 μg/ml,15%
same,vitality in %,Colon 205; 2 μg/ml,70%
same,vitality in %,Colon 205; 4 μg/ml,59%
same,vitality in %,Colon 205; 8 μg/ml,27%
same,vitality in %,Colon 205; 16 μg/ml,16%
same,vitality in %,Colon 205; 32 μg/ml,16%
same,vitality in %,Colon 205; 64 μg/ml,15%
same,serum concentrations in the rat's blood,[1]; after two hours,up to 100 μg/ml
same,tolerance,[1]; rat,good
same,vitality in %,BxPc-3; 2 μg/ml,63%
same,vitality in %,BxPc-3; 4 μg/ml,74%
same,vitality in %,BxPc-3; 8 μg/ml,44%
same,vitality in %,BxPc-3; 16 μg/ml,18%
same,vitality in %,BxPc-3; 32 μg/ml,11%
same,vitality in %,BxPc-3; 64 μg/ml,9%
same,vitality in %,HCT-15; 2 μg/ml,81%
same,vitality in %,HCT-15; 4 μg/ml,81%
same,vitality in %,HCT-15; 8 μg/ml,69%
same,vitality in %,HCT-15; 16 μg/ml,25%
same,vitality in %,HCT-15; 32 μg/ml,18%
same,vitality in %,HCT-15; 64 μg/ml,16%
same,Vitality of lymphocytes in %,[2]; 12.5 μg/ml,98%
same,Vitality of lymphocytes in %,[2]; 25 μg/ml,100%
same,Vitality of lymphocytes in %,[2]; 50 μg/ml,96%
same,Vitality of lymphocytes in %,[2]; 100 μg/ml,98%
same,Vitality of lymphocytes in %,[2]; 250 μg/ml,30%
same,Vitality of lymphocytes in %,[2]; 500 μg/ml,16%
same,Vitality of lymphocytes in %,[2]; 1000 μg/ml,1%
same,concentrations from which cytostatic activity has been observed,[2]; healthy endogenous cells such as lymphocytes (table 4),≥ 100 µg/mL
same,vitality in %,HAT-29; 0.125 μg/ml,76%
same,vitality in %,HAT-29; 0.25 μg/ml,85%
same,vitality in %,HAT-29; 0.5 μg/ml,98%
same,vitality in %,HAT-29; 1 μg/ml,88%
same,vitality in %,HAT-29; 2 μg/ml,77%
same,vitality in %,HAT-29; 4 μg/ml,76%
same,vitality in %,HAT-29; 8 μg/ml,47%
same,vitality in %,HAT-29; 16 μg/ml,21%
same,vitality in %,HAT-29; 32 μg/ml,13%
same,vitality in %,HAT-29; 64 μg/ml,11%
CO[C@@]12[C@H](COC(N)=O)C3=C(C(=O)C(C)=C(N)C3=O)N1C[C@@H]1N[C@@H]12 [Mitomycin C],vitality in %,AsPc-1; 0.015 μg/ml,98%
same,vitality in %,AsPc-1; 0.15 μg/ml,89%
same,vitality in %,AsPc-1; 1.5 μg/ml,65%
same,vitality in %,Capan-1; 0.015 μg/ml,59%
same,vitality in %,Capan-1; 0.15 μg/ml,30%
same,vitality in %,Capan-1; 1.5 μg/ml,22%
same,vitality in %,Panc-1; 0.015 μg/ml,104%
same,vitality in %,Panc-1; 0.15 μg/ml,103%
same,vitality in %,Panc-1; 1.5 μg/ml,55%
same,vitality in %,BxPc-3; 0.015 μg/ml,100%
same,vitality in %,BxPc-3; 0.15 μg/ml,91%
same,vitality in %,BxPc-3; 1.5 μg/ml,47%
N.N.[Cl][Pt][Cl] [Cisplatin],vitality in %,AsPc-1; 0.025 μg/ml,85%
same,vitality in %,AsPc-1; 0.25 μg/ml,89%
same,vitality in %,AsPc-1; 2.5 μg/ml,53%
same,vitality in %,Capan-1; 0.025 μg/ml,94%
same,vitality in %,Capan-1; 0.25 μg/ml,54%
same,vitality in %,Capan-1; 2.5 μg/ml,36%
same,vitality in %,BxPc-3; 0.025 μg/ml,87%
same,vitality in %,BxPc-3; 0.25 μg/ml,65%
same,vitality in %,BxPc-3; 2.5 μg/ml,93%
COc1cccc2c1C(=O)c1c(O)c3c(c(O)c1C2=O)C[C@@](O)(C(=O)CO)C[C@@H]3O[C@H]1C[C@H](N)[C@@H](O)[C@H](C)O1 [Epirubicin],vitality in %,AsPc-1; 0.12 μg/ml,105%
same,vitality in %,AsPc-1; 1.19 μg/ml,59%
same,vitality in %,AsPc-1; 11.9 μg/ml,55%
same,vitality in %,Capan-1; 0.12 μg/ml,50%
same,vitality in %,Capan-1; 1.19 μg/ml,35%
same,vitality in %,Capan-1; 11.9 μg/ml,54%
same,vitality in %,Panc-1; 0.12 μg/ml,111%
same,vitality in %,Panc-1; 1.19 μg/ml,43%
same,vitality in %,Panc-1; 11.9 μg/ml,61%
same,vitality in %,BxPc-3; 0.12 μg/ml,76%
same,vitality in %,BxPc-3; 1.19 μg/ml,55%
same,vitality in %,BxPc-3; 11.9 μg/ml,62%
O=c1[nH]cc(F)c(=O)[nH]1 [5-Fluorouracil],vitality in %,AsPc-1; 0.6 μg/ml,92%
same,vitality in %,AsPc-1; 6 μg/ml,88%
same,vitality in %,AsPc-1; 60 μg/ml,71%
same,vitality in %,Capan-1; 0.6 μg/ml,46%
same,vitality in %,Capan-1; 6 μg/ml,38%
same,vitality in %,Capan-1; 60 μg/ml,23%
same,vitality in %,Panc-1; 0.6 μg/ml,80%
same,vitality in %,Panc-1; 6 μg/ml,77%
same,vitality in %,Panc-1; 60 μg/ml,62%
same,vitality in %,BxPc-3; 0.6 μg/ml,86%
same,vitality in %,BxPc-3; 6 μg/ml,79%
same,vitality in %,BxPc-3; 60 μg/ml,67%
